{
  "source": "patent US10906977B2",
  "about": "“Enhancing the therapeutic activity of immune checkpoint inhibitor” (Maine Medical Center Research Institute, priority 2016, dated 2021)",
  "molecules": {"B1": {"name": "Synthetic collagen RGD containing peptide P-1 (CKGDRGDAPGC) (peptide)", "peptide": "CKGDRGDAPGC"}, "B2": {"name": "Collagen PGF-peptide (CPGFPGFC), synthetic HU177 epitope (peptide)", "peptide": "CPGFPGFC"}},
  "key": {"[1]": {"tested_on": "fibroblasts", "assay": "Growth factor-induced fibroblast migration on denatured collagen", "type": "cell-based, human", "conditions": "FGF-2 20 ng/ml; FIG. 22B, 22E, 24D", "experimental": "Transwell membranes (8.0 um pore size) were coated with 5 μg/ml of native or denatured collagen for 12 hrs at […] as described previously (13). Migration buffer containing RPMI 1640, 1 mM MgCl2, 0.2 mM MnCl2 and 0.5% BSA in the presence or absence of 5× concentrated serum free SKOV-3 CM or 20 ng/ml FGF-2 was placed in the lower chambers. SKOV-3 or fibroblasts (1×105) were resuspended in migration buffer containing RPMI 1640, 1 mM MgCl2, 0.2 mM MnCl2 and 0.5% BSA in the presence or absence of antibodies directed to the HU177 epitope, or α10β1, (10 μg/ml) or 100 uM of the MEK inhibitor ([…]). Cells were added to the top chamber and allowed to migrate from 2 to 4 hrs. Cells remaining on the top of the membranes were removed and cells that had migrated to the underside of the membrane were quantified by direct cell counts of crystal violet stained cells or by measuring the optical density of eluted cell-associated crystal violet dye as previously described (15). Assays were completed at least 3×."}, "[2]": {"tested_on": "chick chorioallantoic membrane (CAM)", "assay": "Chick CAM inflammation induced by soluble RGD collagen peptides", "type": "in vivo", "conditions": "FIG. 5D", "experimental": "(§1) The chick chorioallantoic membrane (CAM) assays were carried out with some modifications (19). For all experiments CAMs of 10-day-old chick embryos obtained from Charles River (North Franklin, Conn.) were separated from the shell membrane. Filter discs either non-treated (inflammation assays) pretreated (angiogenesis assays) with cortisone acetate (3.0 mg/ml) containing RPMI only or FGF-2 (40 ng). CAMs were either non-treated or treated topically with Mab XL313, XL166 or a non-specific control antibody (10 μg/embryo every 24 h for three consecutive treatments). […] At the end of the incubation period the embryos were sacrificed and the CAM tissues were analyzed. Angiogenesis was quantified by counting the number of angiogenic branching blood vessels within the area of the filter disc. The angiogenic index was determined by subtracting the mean number of blood vessel branch points from untreated CAMs from each experimental condition. Eight to twelve embryos were used per condition and experiments were repeated at least three times."}, "[3]": {"tested_on": "human microvascular endothelial cells (HMVEC)", "assay": "Cell adhesion to immobilized collagen RGD peptides", "type": "cell-based", "conditions": "peptide immobilized 100 μg/ml", "experimental": "(§2) RGD peptides (P-1, P-2, P-3, P-4, P-5, and P-C) were immobilized (100 μg/ml) to wells. HUVEC, HMVEC, HRMVEC, and HDF cells were suspended in adhesion buffer (RPMI containing 1 mM MgCl2, 0.2 mM MnCl2 and 0.5% BSA) and 1×10^5 cells were seeded into the wells in the presence or absence of P4C10, LM609, P1F6 or control antibodies (100 μg/ml). Cells were allowed to attach for 25 min at 37° C. Media containing non-attached cells was aspirated and attached cells were washed with PBS and stained with crystal violet. Cell adhesion was quantified by measuring the optical density of eluted dye. Adhesion assays were completed at least three times with triplicate wells."}, "[4]": {"tested_on": "human umbilical vein endothelial cell (HUVEC)", "assay": "Cell adhesion to immobilized collagen RGD peptides", "type": "cell-based", "conditions": "peptide immobilized 100 μg/ml; FIG. 1A", "experimental": "as §2"}, "[5]": {"tested_on": "human dermal fibroblasts", "assay": "Cell adhesion to immobilized collagen RGD peptides", "type": "cell-based", "conditions": "peptide immobilized 100 μg/ml", "experimental": "as §2"}, "[6]": {"tested_on": "human retinal microvascular endothelial cells (HRMVEC)", "assay": "Cell adhesion to immobilized collagen RGD peptides", "type": "cell-based", "conditions": "peptide immobilized 100 μg/ml", "experimental": "as §2"}, "[7]": {"tested_on": "chick chorioallantoic membrane (CAM)", "assay": "Chick CAM angiogenesis induced by soluble RGD collagen peptides", "type": "in vivo", "conditions": "soluble peptide; FIG. 5C", "experimental": "as §1"}, "[8]": {"tested_on": "XL313 epitope", "assay": "Circulating Mab XL313 reactive epitope in chick embryo serum (solid-phase ELISA)", "type": "in vivo", "conditions": "serum collected three days after FGF-2 stimulation; FIG. 5A", "from_the_text": "FIG. 5A-FIG. 5D are bar graphs depicting the induction of angiogenesis and inflammation in vivo by soluble RGDKGE (SEQ ID NO: 1) but not a related RGDAPG (SEQ ID NO: 11) containing collagen epitope. FIG. 5A is a bar graph depicting serum from chick embryos in which the CAMs had been either not stimulated (NT) or stimulated with FGF-2 was collected. Relative levels of circulating Mab XL313 reactive epitope were quantified by solid-phase ELISA. Data represent mean Mab XL313 reactivity±S.E (N=12 to 13). FIG. 5B is a bar graph depicting quantification of dose dependent induction of angiogenesis by RGDKGE (SEQ ID NO: 1) containing collagen peptide P-2. […] FIG. 5C is a bar graph depicting quantification of CAM angiogenesis associated with RGD containing collagen peptides P-1 (KGDRGDAPG; SEQ ID NO: 2), P-2 (QGPRGDKGE; SEQ ID NO: 3) or control peptide P-C (QGPSGSPGE; SEQ ID NO: 4). […] FIG. 5D is a bar graph depicting the quantification of CAM inflammation associated with RGD containing collagen peptides P-1 (KGDRGDAPG; SEQ ID NO: 2), P-2 (QGPRGDKGE; SEQ ID NO: 3) or control peptide P-C (QGPSGSPGE (SEQ ID NO: 4)). […]\nDue to the differential expression and bio-distribution of the RGDKGE (SEQ ID NO: 1) epitope in angiogenic CAM tissues and its expression in macrophage-conditioned medium, it was determined whether a soluble circulating form of this RGDKGE (SEQ ID NO: 1) epitope could be generated. […]"}, "[9]": {"tested_on": "chick chorioallantoic membrane (CAM)", "assay": "Chick CAM inflammation assay, FGF-2 induced, no cortisone acetate", "type": "in vivo", "experimental": "The chick chorioallantoic membrane (CAM) assays were carried out with some modifications (19). For all experiments CAMs of 10-day-old chick embryos obtained from Charles River (North Franklin, Conn.) were separated from the shell membrane. Filter discs either non-treated (inflammation assays) pretreated (angiogenesis assays) with cortisone acetate (3.0 mg/ml) containing RPMI only or FGF-2 (40 ng). CAMs were either non-treated or treated topically with Mab XL313, XL166 or a non-specific control antibody (10 μg/embryo every 24 h for three consecutive treatments). For peptide induction experiments, CAMs were stimulated with 100 ng/ml of the RGD peptides (P-1, P-2, P-C) in the presence or absence of the P38MAPK inhibitor, SB202190 (10 μM). At the end of the incubation period the embryos were sacrificed and the CAM tissues were analyzed. Angiogenesis was quantified by counting the number of angiogenic branching blood vessels within the area of the filter disc. The angiogenic index was determined by subtracting the mean number of blood vessel branch points from untreated CAMs from each experimental condition. Eight to twelve embryos were used per condition and experiments were repeated at least three times.\nCAMs examined for accumulation of granulation tissue were harvested, fixed in 4% PFA and paraffin embedded and sectioned (4 μm) and stained with Giemsa. CAM tissues analyzed via immunofluorescence were harvested, embedded with OCT, snap frozen and sectioned ([…]). Frozen sections were fixed in 50% methanol/50% acetone, air dried and blocked with 2.5% BSA for 1 h at 37° C. For expression of the XL313 and XL166 epitopes as well as monocyte/macrophages, FGF-2 stimulated CAM tissues were stained with Mabs XL313, XL166 (50 μg/ml) or KUL1 (1:250) and then incubated with Alexa-488 labeled secondary antibodies (1:2000 dilution). […] Using a similar strategy, sections of RGD peptide-treated CAM tissues were analyzed for phosphorylated-P38MAPK in angiogenic vessels by co-incubation of anti-phospho-P38MAPK (1:50) and anti-vWf (1:500) antibodies. […]"}, "[10]": {"target": "T1, integrin αvβ3 on cells (HUVEC endothelial cells, M21 melanoma cells, human T-cells) (human, UniProt P06756 31-1048; P05106 27-788)", "T1 construct": "whole, on cells; Endogenous receptor on the cells used in adhesion and signalling assays; also called β3 integrin", "T1 sequence (P06756 31-1048, chain 1 of 2)": "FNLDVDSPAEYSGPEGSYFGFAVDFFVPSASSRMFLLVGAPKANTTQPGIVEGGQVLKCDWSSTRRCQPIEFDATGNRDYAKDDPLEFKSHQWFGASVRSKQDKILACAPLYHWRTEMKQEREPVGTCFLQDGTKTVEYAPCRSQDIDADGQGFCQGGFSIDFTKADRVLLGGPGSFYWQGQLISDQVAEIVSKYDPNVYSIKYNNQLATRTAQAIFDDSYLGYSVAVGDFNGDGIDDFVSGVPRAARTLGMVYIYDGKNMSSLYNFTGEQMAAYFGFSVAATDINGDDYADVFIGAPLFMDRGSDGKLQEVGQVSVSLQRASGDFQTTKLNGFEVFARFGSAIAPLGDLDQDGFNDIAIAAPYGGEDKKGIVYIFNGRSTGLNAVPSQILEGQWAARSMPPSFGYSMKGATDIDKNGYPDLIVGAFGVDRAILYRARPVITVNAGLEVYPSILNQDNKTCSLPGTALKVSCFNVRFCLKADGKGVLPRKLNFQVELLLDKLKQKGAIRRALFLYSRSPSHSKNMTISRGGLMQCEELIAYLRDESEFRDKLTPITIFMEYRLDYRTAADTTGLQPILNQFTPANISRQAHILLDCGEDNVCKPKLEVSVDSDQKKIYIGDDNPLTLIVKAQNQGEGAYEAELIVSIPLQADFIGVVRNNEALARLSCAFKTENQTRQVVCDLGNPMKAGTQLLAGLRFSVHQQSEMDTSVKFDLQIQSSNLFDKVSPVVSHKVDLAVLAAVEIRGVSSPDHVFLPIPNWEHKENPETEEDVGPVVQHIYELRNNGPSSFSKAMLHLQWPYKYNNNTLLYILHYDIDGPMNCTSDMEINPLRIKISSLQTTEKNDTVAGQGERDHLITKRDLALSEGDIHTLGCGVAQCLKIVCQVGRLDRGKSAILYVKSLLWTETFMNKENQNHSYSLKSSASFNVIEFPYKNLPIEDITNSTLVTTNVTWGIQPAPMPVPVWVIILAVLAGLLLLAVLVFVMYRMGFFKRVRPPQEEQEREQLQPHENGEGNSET", "T1 sequence (P05106 27-788, chain 2 of 2)": "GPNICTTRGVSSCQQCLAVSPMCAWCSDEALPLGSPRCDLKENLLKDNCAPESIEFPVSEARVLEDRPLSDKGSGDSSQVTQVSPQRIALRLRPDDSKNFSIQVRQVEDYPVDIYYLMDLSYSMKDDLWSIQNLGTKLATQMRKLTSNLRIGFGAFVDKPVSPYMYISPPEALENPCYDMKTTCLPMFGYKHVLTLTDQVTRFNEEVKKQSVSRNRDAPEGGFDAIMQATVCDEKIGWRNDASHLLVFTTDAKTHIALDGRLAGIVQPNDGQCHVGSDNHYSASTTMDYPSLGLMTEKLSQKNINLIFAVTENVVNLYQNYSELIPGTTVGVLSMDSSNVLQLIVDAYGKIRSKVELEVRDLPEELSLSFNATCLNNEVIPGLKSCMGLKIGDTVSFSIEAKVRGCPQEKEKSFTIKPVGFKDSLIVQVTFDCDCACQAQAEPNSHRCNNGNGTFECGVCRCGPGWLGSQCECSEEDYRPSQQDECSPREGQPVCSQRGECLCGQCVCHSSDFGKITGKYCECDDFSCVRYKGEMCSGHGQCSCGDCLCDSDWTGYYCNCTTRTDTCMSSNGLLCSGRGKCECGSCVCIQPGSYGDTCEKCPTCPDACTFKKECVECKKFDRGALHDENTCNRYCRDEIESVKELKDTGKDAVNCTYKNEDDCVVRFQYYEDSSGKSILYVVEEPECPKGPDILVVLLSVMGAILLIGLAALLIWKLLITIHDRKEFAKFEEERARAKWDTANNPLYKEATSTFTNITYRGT", "assay": "HUVEC adhesion to immobilized peptides with function blocking anti-integrin antibodies", "experimental": "as §2, with “µg/ml)” for “μg/ml)”, “µg/ml).” for “μg/ml).”\nExample 8: Collagen Peptide P-2 Binds and Activates αvβ3 and Stimulates P38MAPK Activation in a Src Dependent Manner It is well established that multiple integrins recognize RGD amino acid motifs within ECM proteins. However, the ability of an integrin to bind distinct RGD epitopes depends in part on its orientation within the parent molecule and the C-terminal amino acid sequences flanking the RGD motif (25-27). Potential cell surface receptors that mediate interactions with the RGDKGE (SEQ ID NO: 1) containing collagen P-2 peptide were identified. The ability of endothelial cells to bind the RGD collagen peptides P-1 and P-2 in the presence or absence of function blocking anti-integrin antibodies was examined."}, "[11]": {"target": "T2, integrin αvβ3 (recombinant) (UniProt P06756 31-992; P05106 27-718)", "T2 construct": "Bought recombinant integrin; also called recombinant integrin receptor αvβ3", "T2 sequence (P06756 31-992 limits assumed, chain 1 of 2)": "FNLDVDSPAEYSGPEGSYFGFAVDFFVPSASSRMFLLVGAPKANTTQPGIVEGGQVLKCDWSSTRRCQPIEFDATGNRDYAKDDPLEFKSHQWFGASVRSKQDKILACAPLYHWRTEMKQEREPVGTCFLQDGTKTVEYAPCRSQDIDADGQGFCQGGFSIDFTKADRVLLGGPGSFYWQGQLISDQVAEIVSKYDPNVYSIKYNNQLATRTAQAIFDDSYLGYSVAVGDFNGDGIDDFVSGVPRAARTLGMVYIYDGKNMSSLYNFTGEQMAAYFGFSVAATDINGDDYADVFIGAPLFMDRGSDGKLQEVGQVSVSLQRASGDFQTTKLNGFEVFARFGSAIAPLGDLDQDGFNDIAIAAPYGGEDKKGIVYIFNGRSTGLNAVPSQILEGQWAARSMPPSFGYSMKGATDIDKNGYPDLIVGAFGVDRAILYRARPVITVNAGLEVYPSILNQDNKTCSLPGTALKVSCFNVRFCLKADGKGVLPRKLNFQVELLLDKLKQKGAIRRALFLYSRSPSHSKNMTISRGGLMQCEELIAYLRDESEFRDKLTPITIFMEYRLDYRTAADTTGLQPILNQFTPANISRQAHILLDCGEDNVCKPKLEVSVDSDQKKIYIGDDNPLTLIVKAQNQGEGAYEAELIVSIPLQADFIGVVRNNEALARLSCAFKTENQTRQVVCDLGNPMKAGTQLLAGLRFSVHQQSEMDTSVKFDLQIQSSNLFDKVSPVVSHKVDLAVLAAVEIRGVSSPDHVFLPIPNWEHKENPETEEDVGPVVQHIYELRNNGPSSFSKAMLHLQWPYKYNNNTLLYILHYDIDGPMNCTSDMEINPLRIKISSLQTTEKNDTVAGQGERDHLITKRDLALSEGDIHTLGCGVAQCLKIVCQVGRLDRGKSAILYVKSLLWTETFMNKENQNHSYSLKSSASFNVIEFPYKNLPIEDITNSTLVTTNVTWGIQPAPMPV", "T2 sequence (P05106 27-718 limits assumed, chain 2 of 2)": "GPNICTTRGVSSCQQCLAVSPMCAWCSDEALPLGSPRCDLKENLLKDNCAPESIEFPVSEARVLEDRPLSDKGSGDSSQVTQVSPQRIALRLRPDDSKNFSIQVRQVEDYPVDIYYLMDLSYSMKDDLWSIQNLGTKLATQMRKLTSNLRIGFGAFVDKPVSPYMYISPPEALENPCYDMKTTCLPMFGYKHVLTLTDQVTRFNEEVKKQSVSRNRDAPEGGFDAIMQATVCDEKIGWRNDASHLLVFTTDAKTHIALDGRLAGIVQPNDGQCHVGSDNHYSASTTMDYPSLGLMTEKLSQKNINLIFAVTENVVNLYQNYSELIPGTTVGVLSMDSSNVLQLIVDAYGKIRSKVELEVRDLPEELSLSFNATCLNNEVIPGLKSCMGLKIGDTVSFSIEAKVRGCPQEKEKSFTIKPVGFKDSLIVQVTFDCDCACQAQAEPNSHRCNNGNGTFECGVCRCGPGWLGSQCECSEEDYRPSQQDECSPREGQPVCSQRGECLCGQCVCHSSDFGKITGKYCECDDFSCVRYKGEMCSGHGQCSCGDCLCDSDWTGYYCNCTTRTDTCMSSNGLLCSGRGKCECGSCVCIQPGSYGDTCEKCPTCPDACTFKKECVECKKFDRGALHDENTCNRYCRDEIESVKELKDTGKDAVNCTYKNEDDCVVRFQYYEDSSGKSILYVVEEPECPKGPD", "assay": "solid-phase binding assay, integrin on immobilized PGF peptide (100 ug/ml)", "experimental": "Plates were coated with 25 µg/ml of native or denatured (boiled 15 minutes) collagen. Collagen epitope peptide PGF and Cont-peptides were immobilized at 100 ug/ml. Integrins (0-2.0 µg/ml) were diluted in binding buffer containing 20 mM Tris, 15 mM NaCl, 1 mM MgCl2, 0.2 mM MnCl2, 0.5% BSA pH 7.4 as described (13). Integrins were allowed to bind for 1 hr and plates washed and incubated with anti-integrin antibodies (1:100 dilution) for 1 hr. Plates were washed and incubated with HRP-labeled secondary antibodies (1:5000 dilution). In a second assay, integrins (0.5 µg/ml) were coated in binding buffer and plates were washed, blocked as before and denatured (boiled 15 minutes) collagen was added (0-10.0 µg/ml). Denatured collagen was detected with anti-collagen antibody (1:1000). For integrin blocking ELISAs, wells were coated with denatured collagen and pre-treated (0.1 µg/ml) with anti-HU177 or control antibody. Following washing, wells were incubated with integrins (2.0 µg/ml) and binding was detected as described. Assays were carried out at least 3 times."}},
  "data": [
    {"molecule": "COc1cccc(-c2cc(=O)c3ccccc3o2)c1N", "note": "[MEK inhibitor (PD98059), PD98059]", "values": [
      {"measurement": "FGF-2 stimulated fibroblast migration on denatured collagen", "setting": "[1]", "result": "blocked"}
    ]},
    {"molecule": "CQGPSGAPGEC [P-C, control peptide lacking the RGD tri-peptide motif, reference compound]", "values": [
      {"measurement": "CAM inflammation following stimulation with peptide", "setting": "[2]", "result": "Minimal evidence of tissue inflammation"},
      {"measurement": "HMVEC adhesion to immobilized peptide", "setting": "[3]", "result": "failed to support interactions"},
      {"measurement": "HUVEC adhesion to immobilized peptide", "setting": "[4]", "result": "failed to support adhesion"},
      {"measurement": "human dermal fibroblast adhesion to immobilized peptide", "setting": "[5]", "result": "failed to support interactions"},
      {"measurement": "HRMVEC adhesion to immobilized peptide", "setting": "[6]", "result": "failed to support interactions"},
      {"measurement": "induction of CAM angiogenesis as compared to no treatment", "setting": "[7]", "result": "not"}
    ]},
    {"molecule": "FGF-2: Fibroblast growth factor-2 from R&D Systems, used to stimulate CAMs", "values": [
      {"measurement": "increase in levels of circulating XL313 epitope", "setting": "[8]", "result": 2, "unit": "fold"},
      {"measurement": "CAMs showing robust formation of thick granulation tissue", "setting": "[9]; FGF-2 stimulation in the absence of cortisone acetate, FIG. 3E", "result": "approximately 50%"},
      {"measurement": "macrophage infiltration of the CAMs, enhancement as compared to control", "setting": "[9]; FGF-2 stimulation without cortisone acetate, FIG. 3D", "result": "over 2 fold"}
    ]},
    {"molecule": "B1", "values": [
      {"measurement": "binding result", "setting": "[10]", "result": "binds"}
    ]},
    {"molecule": "B2", "values": [
      {"measurement": "binding result", "setting": "[11]", "result": "no binding"}
    ]}
  ]
}
